Measurements published in patent US8642623B2, “Vanilloid receptor ligand compounds, pharmaceutical compositions containing them, a method of producing them and the use thereof to treat pain and various other conditions” (Gruenenthal GmbH, priority 2007, dated 2014).

Columns and labels:
Format in all cases: cell-based
[1] = target: T1, vanilloid receptor 1 (VR1/TRPV1) of the rat species (Rattus norvegicus, UniProt O35433); assay: FLIPR Ca2+ influx assay on rat dorsal root ganglia cells, capsaicin stimulus (Pharmacological method I); details: capsaicin 100 nM stimulus, Ki from IC50 by Cheng-Prusoff
T1 construct: The spinal column is removed from decapitated rats; from tissue; host or cells: primary cells from rat dorsal root ganglia (DRG)
Experimental: (§1) The agonistic or antagonistic action of the substances to be investigated on the vanilloid receptor 1 (VR1/TRPV1) of the rat species may be determined with the following assay. According to this assay, the influx of Ca^2+ through the receptor channel is quantified with the assistance of a Ca^2+-sensitive dye (type Fluo-4, Molecular Probes Europe BV, Leiden, Netherlands) in a Fluorescent Imaging Plate Reader (FLIPR, Molecular Devices, Sunnyvale, USA).
Complete medium: 50 mL HAMS F12 Nutrient Mixture (Gibco Invitrogen GmbH, Karlsruhe, Germany) with 10 vol. % FCS (foetal calf serum, Gibco Invitrogen GmbH, Karlsruhe, Germany, heat-inactivated);
Cell culture plate: poly-D-lysine-coated, black 96-hole plates with clear base (96 well black/clear plate, BD Biosciences, Heidelberg, Germany) are additionally coated with laminin (Gibco Invitrogen GmbH, Karlsruhe, Germany), by diluting laminin to a concentration of 100 μg/mL with PBS (Ca—Mg-free PBS, Gibco Invitrogen GmbH, Karlsruhe, Germany). Aliquots with a concentration of 100 μg/mL of laminin are taken and stored at −20° C. The aliquots are diluted with PBS in the ratio of 1:10 to 10 μg/mL of laminin and 50 μL of the solution is pipetted into each well of the cell culture plate. The cell culture plates are incubated for at least two hours at 37° C., the supernatant solution is aspirated and the wells are each washed twice with PBS. The coated cell culture plates are stored with supernatant PBS and this is only removed directly prior to introduction of the cells.
The spinal column is removed from decapitated rats and this is placed directly in cold HBSS buffer (Hank's buffered saline solution, Gibco Invitrogen GmbH, Karlsruhe, Germany), i.e. located in an ice bath, combined with 1 vol. % (percent by volume) of an AA solution (antibiotic/antimycotic solution, PAA, Pasching, Austria). The spinal column is severed lengthwise and removed from the spinal canal together with fasciae. The dorsal root ganglia (DRGs) are then removed and in turn stored in cold HBSS buffer combined with 1 vol. % of an AA solution. The DRGs, from which blood residues and spinal nerves have been completely removed, are in each case transferred into 500 μL cold collagenase type 2 (PAA, Pasching, Austria) and incubated for 35 minutes at 37° C. After the addition of 2.5 vol. % trypsin (PAA, Pasching, Austria) incubation at 37° C. is continued for a further 10 minutes. After complete incubation, the enzyme solution is carefully pipetted off and the remaining DRGs are combined in each case with 500 μL of complete medium.
The DRGs are in each case repeatedly suspended, drawn through cannulas no. 1, no. 12 and no. 16 by means of a syringe and transferred into 50 mL Falcon microtubes, these being filled to 15 mL with complete medium. The content of each Falcon microtube is in each case filtered through a 70 μm Falcon filter insert and centrifuged for 10 minutes at 1200 revolutions and room temperature. The resultant pellet is in each case redissolved in 250 μL of complete medium and the cell count is determined.
The number of cells in the suspension is adjusted to 3×10^5 per mL and a 150 μL portion of this suspension is in each case placed in a well of the cell culture plates which have been coated as described above. The plates are left to stand in the incubator for two to three days at 37° C., 5 vol. % CO2 and 95% relative atmospheric humidity.
The cells are then loaded with 2 μM Fluo-4 and 0.01 vol. % Pluronic F127 (Molecular Probes Europe BV, Leiden, Netherlands) in HBSS buffer (Hank's buffered saline solution, Gibco Invitrogen GmbH, Karlsruhe, Germany) for 30 min at 37° C., washed 3×with HBSS buffer and, after a further 15 minutes' incubation at room temperature, used for Ca^2+ measurement in the FLIPR assay. Ca^2+-dependent fluorescence is here measured before and after the addition of substances (λex=488 nm, λem=540 nm). […]

vanilloid receptor (VR1) = target: T2, vanilloid receptor (VR1) (Homo sapiens, UniProt Q8NER1); assay: FLIPR Ca2+ influx assay with CHO K1 cells transfected with the human VR1 gene, capsaicin stimulus (Pharmacological method II); details: for Ki / Ki (human) Capsaicin: capsaicin 100 nM stimulus, Ki from IC50 by Cheng-Prusoff
T2 construct: expressed in transfected cells; host or cells: CHO K1 cells (ECACC), stably transfected
Experimental: In addition, compounds according to the invention of the general formulae I, Ia, Ib, I′, I″, I′″ may be preferred which, in a FLIPR assay with CHO K1 cells which have been transfected with the human gene VR1, in a concentration of less than 2000 nM, preferably of less than 1000 nM, particularly preferably of less then 300 nM, very particularly preferably of less than 100 nM, still more preferably of less than 75 nM, further preferably of less than 50 nM, most preferably of less than 10 nM, bring about 50% displacement of capsaicin which is present in a concentration of 100 nM.
In this FLIPR assay, the influx of Ca^2+ is quantified with the assistance of a Ca^2+-sensitive dye (type Fluo-4, Molecular Probes Europe BV, Leiden, Netherlands) in a Fluorescent Imaging Plate Reader (FLIPR, Molecular Devices, Sunnyvale, USA) as described below.
as §1, with “(VR1)” for “1 (VR1/TRPV1) of the rat species”, “may also” for “may”, “the” for “the receptor”
Chinese hamster ovary cells (CHO K1 cells, European Collection of Cell Cultures (ECACC), Great Britain) are stably transfected with the VR1 gene. For functional investigations, these cells are plated out onto poly-D-lysine-coated, black 96-hole plates with a clear base (BD Biosciences, Heidelberg, Germany) at a density of 25,000 cells/hole. The cells are incubated overnight at 37° C. and 5% CO2 in a culture medium (Ham's Nutrient Mixture F12, 10 vol. % FCS (foetal calf serum), 18 μg/mL L-proline). On the following day, the cells are incubated with Fluo-4 (Fluo-4 2 μM, Pluronic F127 0.01 vol. %, Molecular Probes in HBSS (Hank's buffered saline solution), Gibco Invitrogen GmbH, Karlsruhe, Germany) for 30 minutes at 37° C. The plates are then washed 3 times with HBSS buffer and, after a further 15 minutes' incubation at room temperature, used for Ca^2+ measurement in the FLIPR. Ca^2+-dependent fluorescence is here measured before and after the addition of the substances to be investigated (wavelength λex=488 nm, λem=540 nm). Quantification proceeds by measuring the highest fluorescence intensity (FC, fluorescence counts) over time.
The FLIPR protocol consists of 2 additions of substance. The substances to be tested (10 μM) are firstly pipetted onto the cells and Ca^2+ influx is compared with the control (capsaicin 10 μM) (% activation relative to the Ca^2+ signal after addition of 10 μM of capsaicin). After 5 minutes' incubation, 100 nM of capsaicin are added and the influx of Ca^2+ is likewise determined.
The percentage inhibition in comparison with the maximum achievable inhibition with 10 μM capsaicin is calculated.
On the basis of the percentage displacement by different concentrations of the compounds to be tested of the general formula I, IC50 inhibition concentrations which bring about 50% displacement of capsaicin were calculated. Ki values for the test substances were obtained by conversion using the Cheng-Prusoff equation (Cheng, Prusoff; Biochem. Pharmacol. 22, 3099-3108, 1973).

[2] = target: vanilloid receptor 1 (VR1/TRPV1 receptor) (Homo sapiens, UniProt Q8NER1); assay: Human VR1/TRPV1 receptor inhibition after pH stimulus; details: for inhibition at 5 µM: compound 5 μM; for inhibition at 10 µM: compound 10 μM
vanilloid receptor 1 (VR1/TRPV1 receptor), sequence (Q8NER1 whole entry): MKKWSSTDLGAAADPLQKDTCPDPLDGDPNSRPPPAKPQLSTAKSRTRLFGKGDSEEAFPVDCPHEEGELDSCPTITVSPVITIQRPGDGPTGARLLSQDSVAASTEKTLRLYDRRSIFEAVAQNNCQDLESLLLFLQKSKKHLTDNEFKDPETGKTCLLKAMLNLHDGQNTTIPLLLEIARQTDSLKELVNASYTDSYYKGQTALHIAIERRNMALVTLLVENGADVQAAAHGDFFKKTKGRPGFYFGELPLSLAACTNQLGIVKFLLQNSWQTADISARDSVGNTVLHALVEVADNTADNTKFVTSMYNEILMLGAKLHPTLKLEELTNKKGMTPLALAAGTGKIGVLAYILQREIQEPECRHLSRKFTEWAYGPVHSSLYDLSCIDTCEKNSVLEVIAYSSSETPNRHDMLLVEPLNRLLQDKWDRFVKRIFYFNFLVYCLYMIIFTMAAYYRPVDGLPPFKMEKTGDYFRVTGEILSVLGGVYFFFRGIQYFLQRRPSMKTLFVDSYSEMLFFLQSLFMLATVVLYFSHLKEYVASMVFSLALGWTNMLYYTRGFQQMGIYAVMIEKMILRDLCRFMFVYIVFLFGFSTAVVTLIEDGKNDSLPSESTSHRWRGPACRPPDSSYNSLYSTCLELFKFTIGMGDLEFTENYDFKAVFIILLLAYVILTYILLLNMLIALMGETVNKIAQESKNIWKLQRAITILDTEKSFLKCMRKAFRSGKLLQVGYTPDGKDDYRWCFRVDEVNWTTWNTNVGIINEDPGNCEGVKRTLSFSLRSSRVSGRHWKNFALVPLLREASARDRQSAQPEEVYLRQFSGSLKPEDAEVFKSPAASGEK

T2 sequence (Q8NER1 whole entry): as above
T1 sequence (O35433 whole entry): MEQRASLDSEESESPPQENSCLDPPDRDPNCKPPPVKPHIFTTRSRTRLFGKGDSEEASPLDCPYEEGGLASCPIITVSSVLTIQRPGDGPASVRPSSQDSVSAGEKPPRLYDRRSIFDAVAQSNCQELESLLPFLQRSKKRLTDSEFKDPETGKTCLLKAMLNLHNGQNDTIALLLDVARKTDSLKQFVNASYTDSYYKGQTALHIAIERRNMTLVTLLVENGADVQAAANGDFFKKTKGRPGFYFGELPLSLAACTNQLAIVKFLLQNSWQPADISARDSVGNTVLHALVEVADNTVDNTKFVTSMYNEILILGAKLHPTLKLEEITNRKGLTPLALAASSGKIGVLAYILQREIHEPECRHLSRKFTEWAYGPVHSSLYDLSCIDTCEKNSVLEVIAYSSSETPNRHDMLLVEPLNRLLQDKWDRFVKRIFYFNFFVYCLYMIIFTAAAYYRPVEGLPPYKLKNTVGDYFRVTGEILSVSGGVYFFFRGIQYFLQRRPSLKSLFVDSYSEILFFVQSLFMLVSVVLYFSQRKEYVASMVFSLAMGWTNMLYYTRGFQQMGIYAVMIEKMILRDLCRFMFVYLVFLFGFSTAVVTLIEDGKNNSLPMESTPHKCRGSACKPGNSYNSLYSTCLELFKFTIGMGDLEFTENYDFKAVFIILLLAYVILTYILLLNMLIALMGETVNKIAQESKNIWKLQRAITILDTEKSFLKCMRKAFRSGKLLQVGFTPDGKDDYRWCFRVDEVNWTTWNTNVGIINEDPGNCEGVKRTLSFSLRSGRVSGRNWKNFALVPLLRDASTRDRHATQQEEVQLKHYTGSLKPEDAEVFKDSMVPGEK

| Compound | Ki [1] [nM] | Ki (vanilloid receptor (VR1)) [nM] | IC50 [2] [nM] | inhibition at 5 µM [2] [%] | inhibition at 10 µM [2] [%] | Ki (human) Capsaicin (vanilloid receptor (VR1)) | inhibition at 0.1 µM (vanilloid receptor (VR1); CHO-K1, capsaicin stimulus, compound 0.1 μM) [%] | inhibition at 1 µM (vanilloid receptor (VR1); CHO-K1, capsaicin stimulus, compound 1 μM) [%] | inhibition at 5 µM (vanilloid receptor (VR1); CHO-K1, capsaicin stimulus, compound 5 μM) [%] | IC50 (human) after pH stimulus [2] |
| --- | --- | --- | --- | --- | --- | --- | --- | --- | --- | --- |
| CCC(=O)N(c1ccccc1)C1CCN(c2nc(C(F)(F)F)ccc2CNC(=O)C(C)c2ccc(N(C(=O)CC)S(C)(=O)=O)c(F)c2)CC1 (stereo not shown) [Example 1, N-(2-fluoro-4-(1-oxo-1-((2-(4-(N-phenylpropionamido)piperidin-1-yl)-6-(trifluoromethyl)pyridin-3-yl)methylamino)propan-2-yl)phenyl)-N-(methylsulfonyl)propionamide] | 19.5 | 69.1 | 525 |  |  |  |  |  |  |  |
| CC(=O)N(c1ccc(C(C)C(=O)NCc2ccc(C(F)(F)F)nc2N2CCC(C)CC2)cc1F)S(C)(=O)=O (stereo not shown) [Example 2, 2-(3-fluoro-4-(N-(methylsulfonyl)acetamido)phenyl)-N-((2-(4-methylpiperidin-1-yl)-6-(trifluoromethyl)pyridin-3-yl)methyl)propanamide] | 2.2 | 11.9 | 947 |  |  |  |  |  |  |  |
| CC1CCN(c2nc(C(F)(F)F)ccc2CNC(=O)C(C)c2ccc(N(C)S(C)(=O)=O)c(F)c2)CC1 (stereo not shown) [Example 3, 2-(3-fluoro-4-(N-methylmethylsulfonamido)phenyl)-N-((2-(4-methylpiperidin-1-yl)-6-(trifluoromethyl)pyridin-3-yl)methyl)propanamide] | 20 | 55.5 |  | 8 | 16 |  |  |  |  |  |
| CC(C(=O)NCc1ccc(C(C)(C)C)cc1)c1ccc(N(C)S(C)(=O)=O)c(F)c1 (stereo not shown) [Example 4, N-(4-tert.-butylbenzyl)-2-(3-fluoro-4-(N-methylmethylsulfonamido)phenyl)propanamide] | 50.4 |  |  | 0 | 22 | Ne |  |  |  |  |
| CCN(c1ccc([C@H](C)C(=O)NCc2ccc(C(C)(C)C)cc2)cc1F)S(C)(=O)=O [Example 6, (S)—N-(4-tert.-butylbenzyl)-2-(4-(N-ethylmethylsulfonamido)-3-fluorophenyl)propanamide] | 66.8 |  |  | 0 | 21 | Ne |  |  |  |  |
| CC(C(=O)NCc1ccc(C(F)(F)F)nc1SC1CCCCC1)c1ccc(N(C)S(C)(=O)=O)c(F)c1 (stereo not shown) [Example 7, N-((2-(cyclohexylthio)-6-(trifluoromethyl)pyridin-3-yl)methyl)-2-(3-fluoro-4-(N-methylmethylsulfonamido)phenyl)propanamide] | 30.8 | 48.1 |  | 0 | 20 |  |  |  |  |  |
| CCN(c1ccc(C(C)C(=O)NCc2ccc(C(F)(F)F)nc2N2CCC(C)CC2)cc1F)S(C)(=O)=O (stereo not shown) [Example 9, 2-(4-(N-ethylmethylsulfonamido)-3-fluorophenyl)-N-((2-(4-methylpiperidin-1-yl)-6-(trifluoromethyl)pyridin-3-yl)methyl)propanamide] | 63.8 | 22.7 |  | 11 | 46 |  |  |  |  |  |
| CC1CCN(c2nc(C(C)(C)C)ccc2CNC(=O)C(C)c2ccc(N(C)S(C)(=O)=O)c(F)c2)CC1 (stereo not shown) [Example 10, N-((6-tert.-butyl-2-(4-methylpiperidin-1-yl)pyridin-3-yl)methyl)-2-(3-fluoro-4-(N-methylmethylsulfonamido)phenyl)propanamide] | 2.8 | 27.7 |  | 0 | 11 |  |  |  |  |  |
| CC(C(=O)NCc1ccc(C(C)(C)C)nc1SC1CCCCC1)c1ccc(N(C)S(C)(=O)=O)c(F)c1 (stereo not shown) [Example 11, N-((6-tert.-butyl-2-(cyclohexylthio)pyridin-3-yl)methyl)-2-(3-fluoro-4-(N-methylmethylsulfonamido)phenyl)propanamide] | 16.8 |  |  |  |  |  | 0 | 33 | 56 | ne |
| CC1CCN(c2cc(C(F)(F)F)ccc2CNC(=O)C(C)c2ccc(N(C)S(C)(=O)=O)c(F)c2)CC1 (stereo not shown) [Example 12, 2-(3-fluoro-4-(N-methylmethylsulfonamido)phenyl)-N-(2-(4-methylpiperidin-1-yl)-4-(trifluoromethyl)benzyl)propanamide] | 5 | 7.8 |  | 0 | 43 |  |  |  |  |  |
| CC(C(=O)NCc1ccc(C(F)(F)F)cc1SC1CCCCC1)c1ccc(N(C)S(C)(=O)=O)c(F)c1 (stereo not shown) [Example 13, N-(2-(cyclohexylthio)-4-(trifluoromethyl)benzyl)-2-(3-fluoro-4-(N-methylmethylsulfonamido)phenyl)propanamide] | 5.2 | 33.1 |  |  |  |  |  |  |  | ne |
| CC1CCN(c2cc(C(C)(C)C)ccc2CNC(=O)C(C)c2ccc(N(C)S(C)(=O)=O)c(F)c2)CC1 (stereo not shown) [Example 14, N-(4-tert.-butyl-2-(4-methylpiperidin-1-yl)benzyl)-2-(3-fluoro-4-(N-methylmethylsulfonamido)phenyl)propanamide] | 3 | 13.1 |  | 9 | 43 |  |  |  |  |  |
